Earlier results on one compound are cited in patent publication US20240409577A1, “FORMATION OF AMIDINES AND INTRAMOLECULAR REACTION THEREOF” (priority 2023, published 2024).

As usually defined, the pKa is the pH at which an ionisable group is half protonated.

The conditions of the data set: acid used for the imidazolone transformation.

As for `OC(C(F)(F)F)C(F)(F)F` [HFIP, hexafluoroisopropanol], the pKa is 8.3.
